The subject of data set [1] is Staphylococcus aureus. The data set can be described thus: Bactericidal activity against vancomycin-intermediate Staphylococcus aureus in rabbit endocarditis model at 4 times MIC after 48 hrs. The data set is classed as functional, organism-based.
Data set [2] relates to Pseudomonas aeruginosa. Nature of the data set: Antibacterial activity against Pseudomonas aeruginosa. In kind it is functional.
In data set [3] the test system is Staphylococcus aureus. The data set can be described thus: Bactericidal activity against methicillin-resistant Staphylococcus aureus SA2 in rabbit endocarditis model assessed as growth inhibition at 58 mg/kg infused every 12 hrs for 4 days measured after 48 hrs. The data set is classed as functional. The following applies: read-out: GI.
Data set [4] relates to Staphylococcus aureus. Nature of the data set: %T>MIC in methicillin-resistant Staphylococcus aureus SA2 in rabbit endocarditis model. Conditions: in vivo.
For data set [5], the system named is Staphylococcus aureus. Nature of the data set: Bactericidal activity against vancomycin-intermediate Staphylococcus aureus by microdilution technique. In kind it is functional.
The test system of data set [6] is Neisseria meningitidis. The data set can be described thus: Antibacterial activity against Neisseria meningitidis. In kind it is functional, organism-based.
The test system of data set [7] is Morganella morganii. The data set can be described thus: Antibacterial activity against Morganella morganii. In kind it is functional, organism-based.
For data set [8], the system named is Staphylococcus aureus. Nature of the data set: Bactericidal activity against vancomycin-intermediate Staphylococcus aureus in rabbit endocarditis model assessed per gram of aortic vegetation at 58 mg/kg infused every 12 hrs for 4 days measured after 48 hrs. In kind it is functional, Aorta.
For data set [9], the system named is Staphylococcus aureus. The data set can be described thus: Bactericidal activity against methicillin-resistant Staphylococcus aureus SA2 in rabbit endocarditis model at 4 times MIC after 48 hrs. The data set is classed as functional, organism-based.
Data set [10] in a line: Protein binding in rabbit plasma. In kind it is ADME, cell-free, Oryctolagus cuniculus. The following applies: read-out: PPB.
Data set [11] has as its system Citrobacter freundii. Nature of the data set: Antibacterial activity against Citrobacter freundii. In kind it is functional, organism-based.
Data set [12] relates to Staphylococcus aureus. The data set can be described thus: Bactericidal activity against vancomycin-intermediate Staphylococcus aureus in rabbit endocarditis model assessed as growth inhibition at 58 mg/kg infused every 12 hrs for 4 days measured after 48 hrs. The data set is classed as functional. The following applies: read-out: GI.
Data set [13] in a line: Protein binding in human plasma. The data set is classed as ADME, cell-free. Conditions: read-out: PPB.
The test system of data set [14] is Haemophilus influenzae. The data set can be described thus: Antibacterial activity against Haemophilus influenzae. The data set is classed as functional, organism-based.
In data set [15] the test system is Staphylococcus aureus. Nature of the data set: %T>MIC in methicillin-resistant Staphylococcus aureus in mouse thigh/lung infection model. In kind it is ADME, organism-based. The following applies: in vivo.
The subject of data set [16] is Staphylococcus aureus. Nature of the data set: %T>MIC in vancomycin-intermediate Staphylococcus aureus in rabbit endocarditis model. Conditions: in vivo.
The subject of data set [17] is Staphylococcus aureus. Nature of the data set: Bactericidal activity against methicillin-resistant Staphylococcus aureus SA2 in rabbit endocarditis model assessed per gram of aortic vegetation at 58 mg/kg infused every 12 hrs for 4 days measured after 48 hrs. The data set is classed as functional, Aorta.
The subject of data set [18] is Moraxella catarrhalis. The data set can be described thus: Antibacterial activity against Moraxella catarrhalis. In kind it is functional, organism-based.
Data set [19] concerns Escherichia coli. Nature of the data set: Antibacterial activity against Escherichia coli. The data set is classed as functional, organism-based.
Data set [20] has as its system Klebsiella pneumoniae. The data set can be described thus: Antibacterial activity against Klebsiella pneumoniae. In kind it is functional, organism-based.
The test system of data set [21] is Staphylococcus aureus. The data set can be described thus: Bactericidal activity against methicillin-resistant Staphylococcus aureus SA2 by microdilution technique. In kind it is functional.
Data set [22] is described as follows: Half life in rabbit plasma at 58 mg/kg infused every 12 hrs for 4 days. On the set-up: dose 58 mg/kg. Conditions: iv. The data set is classed as ADME, organism-based, Oryctolagus cuniculus.
Data set [23] can be described thus: AUC in rabbit plasma at 58 mg/kg infused every 12 hrs for 4 days. Conditions: iv. In kind it is ADME, organism-based, Oryctolagus cuniculus. On the set-up: dose 58 mg/kg.
A short description of data set [24]: Cmax in rabbit plasma at 58 mg/kg infused every 12 hrs for 4 days. Also on record: dose 58 mg/kg. The data set is classed as ADME, organism-based, Oryctolagus cuniculus. Conditions: iv.
Data set [25] has as its system Oryctolagus cuniculus. The data set can be described thus: Plasma concentration in rabbit at 58 mg/kg infused every 12 hrs for 4 days. Also on record: dose 58 mg/kg. The following applies: in vivo, iv. In kind it is ADME, organism-based.

Structures are written as SMILES. In brackets after ≈: the same amount, converted by molar mass. Activity calls are given as the source filed them. No cut-off for these calls is given here.

With `CCO/N=C(\C(=O)N[C@@H]1C(=O)N2C(C(=O)[O-])=C(Sc3nc(-c4cc[n+](C)cc4)cs3)CS[C@H]12)c1nsc(NP(=O)(O)O)n1` [CEFTAROLINE FOSAMIL], the result in [1], in data set [6], in [7], in data set [9], in [11] and in data set [14] was Active. Also, the outcome in data set [18], in [19] and in data set [20] was Active. In data set [2], this compound came in with an MIC90 of more than 32 µg/mL. Moreover, the inhibition in vivo at 58 mg/kg in data set [3] worked out at 90%; in data set [12], 60%. Further, the “T>MIC” value in data set [4] was 75%; in data set [15], 33%; in data set [16] it was 62%. Further, the MBC in data set [5] is 2 µg/mL (≈ 2.92 µM); in data set [21], 1 µg/mL (≈ 1.46 µM). In addition, the minimum inhibitory concentration (MIC) in data set [5] was found to be 2 µg/mL (≈ 2.92 µM); in data set [21], 1 µg/mL (≈ 1.46 µM). Further, the values for the log10cfu in data set [8] and in data set [17] were 3 and 2.5, respectively. Moreover, the fraction unbound in [10] and in [13] was more than 0.8 in each case.

Consider `CC(=O)NC[C@H]1CN(c2ccc(N3CCOCC3)c(F)c2)C(=O)O1` [LINEZOLID], for which the inhibition in vivo at 58 mg/kg in data set [3] and in data set [12] was 0% throughout. In addition, the minimum bactericidal concentration (MBC) was 16 µg/mL (≈ 47.4 µM) in [5] and more than 64 µg/mL in data set [21]. This compound had a minimal inhibitory concentration (MIC) in data set [5] of 1 µg/mL (≈ 2.96 µM). The compound further had a half-life in [22] of 3.3 h. In data set [23], this compound gave an AUC of 137 µg·h/mL. Besides, the log10cfu in [8] amounted to 6.9; in data set [17], 7.1. The highest level in [24] (Cmax) was 19600 ng/mL.

On to `COc1cccc(OC)c1C(=O)N[C@@H]1C(=O)N2[C@@H]1SC(C)(C)[C@@H]2C(=O)O` [METHICILLIN], for which the minimum inhibitory concentration (MIC) in data set [5] is more than 1020 µg/mL; in data set [21], 128 µg/mL (≈ 336 µM).

With `CN[C@H](CC(C)C)C(=O)N[C@H]1C(=O)N[C@@H](CC(N)=O)C(=O)N[C@H]2C(=O)N[C@H]3C(=O)N[C@H](C(=O)N[C@H](C(=O)O)c4cc(O)cc(O)c4-c4cc3ccc4O)[C@H](O)c3ccc(c(Cl)c3)Oc3cc2cc(c3O[C@@H]2O[C@H](CO)[C@@H](O)[C@H](O)[C@H]2O[C@H]2C[C@](C)(N)[C@H](O)[C@H](C)O2)Oc2ccc(cc2Cl)[C@H]1O` [VANCOMYCIN], the inhibition in vivo at 58 mg/kg worked out at 67% in data set [3] and 0% in data set [12]. In addition, the minimal bactericidal concentration (MBC) in [5] turned out to be 8 µg/mL (≈ 5.52 µM); in [21], 2 µg/mL (≈ 1.38 µM). Besides, the log10cfu is 6.7 in [8] and 2.7 in [17]. Besides, the Cp in data set [25] came out at 23100 ng/mL.

The values are drawn from ChEMBL document CHEMBL1143426, “In vivo efficacy of ceftaroline (PPI-0903), a new broad-spectrum cephalosporin, compared with linezolid and vancomycin against methicillin-resistant and vancomycin-intermediate Staphylococcus aureus in a rabbit endocarditis model” (Antimicrob Agents Chemother, 2007).
